“Also recorded” adds a separate entry of the source.
What was measured:
[1] = system: patient diagnosed schizophrenia; assay: PANSS scoring, 6-week double-blind treatment; type: in vivo, human; details: 6 weeks; treatment responders only; lurasidone 40 mg/d, olanzapine 15 mg/d, placebo; FIG. 1
Protocol: Positive and Negative Syndrome Scale (PANSS) was measured according to the procedures well-established in the art. Clinical interviews were conducted by qualified trained professionals. A patient diagnosed schizophrenia was rated from 1 to 7 on 30 different symptoms based in the interview. The 30 symptoms assessed were: (1) positive symptoms, i.e., delusions, conceptual disorganization, hallucinations, hyperactivity, grandiosity, suspiciousness/persecution and hostility; (2) negative symptoms, i.e., blunted affect, emotional withdrawal, poor rapport, passive/apathetic social withdrawal, difficulty in abstract thinking, lack of spontaneity and flow of conversation and stereotyped thinking; and (3) general psychopathology symptoms, i.e., somatic concern, anxiety, guilt feelings, tension, mannerism and posturing, depression, motor retardation, uncooperativeness, unusual thought content, disorientation, poor attention, lack of judgment and insight, disturbance of volition, poor impulse control, preoccupation and active social avoidance. […]
Prior to the baseline visit, subjects underwent a 3-7 day washout of their current antipsychotic medication and randomized to receive either lurasidone (40 mg per day), olanzapine (15 mg per day) or placebo for 6 weeks. Symptom improvement was assessed by the change in PANSS score (total and subscale scores) from baseline to study endpoint. […]

[2] = system: glutamate; assay: Metabolomic analysis of plasma samples: glutamate level; type: in vivo, human
Excerpt: (§1) Blood samples were taken at 4 days and 6 weeks following treatment. Plasma samples were isolated from whole blood and used for global metabolomic profiling.
(§2) At the time of analysis, samples were thawed and extracts prepared according to a standard protocol, which is designed to remove protein, dislodge small molecules bound to protein or physically trapped in the precipitated protein matrix, and recover a wide range of chemically diverse metabolites. A separate aliquot of each experimental plasma sample was taken then pooled for the creation of “Client Matrix” (CMTRX) samples. These CMTRX samples were injected throughout the platform run and served as technical replicates, allowing variability in the quantitation of all consistently detected biochemicals to be determined and overall process variability and platform performance to be monitored. Extracts of all experimental and CMTRX samples were split for analysis on the GC/MS and LC/MS/MS platforms.
(§3) The CMTRX technical replicate samples were treated independently throughout the process as if they were study samples. All process samples (CMTRX, GROBs—a mixture of organic components used to assess GC column performance, process blanks, etc.) were spaced evenly among the injections for each day and all client samples were randomly distributed throughout each day's run. Data were collected over eight platform run days and thus, ‘block normalized’ by calculating the median values for each run-day block for each individual compound. […] Missing values (if any) were assumed to be below the level of detection for that biochemical with the instrumentation used and were imputed with the observed minimum for that particular biochemical.
A number of internal standards were added to each experimental and process standard sample just prior to injection into the mass spectrometers. A measure of the platform variability was determined by calculating the median relative standard deviation (RSD) for these internal standards. […] Because these standards were added to the samples immediately prior to injection into the instrument, this value reflects instrument variation. In addition, the median relative standard deviation (RSD) for the biochemicals that were consistently measured in the CMTRX represents the total variability within the process for the actual experimental samples and the variability in quantitation of the endogenous metabolites within these samples (Table 2).
Biochemical data were analyzed by ANOVA contrasts and a Two-way ANOVA.
(§4) Statistical analyses of the data were performed on natural log-transformed data to reduce the effect of any potential outliers in the data. T-test comparisons were calculated using the one or both of the statistical software analysis programs: Array Studio (Omicsoft, Inc) or ‘R’ from the Free Software Foundation, Inc.
(§5) For t-test comparisons, within each group: placebo, lurasidone and olanzapine, the early versus the late time point was compared (i.e., 4 days versus 6 weeks). In addition, both lurasidone and olanzapine were compared with placebo at the appropriate time point and then lurasidone was compared with olanzapine at both 4 days and 6 weeks.

[3] = system: 732 biochemicals; assay: Global metabolomic profiling: number of biochemicals significantly changed; type: in vivo, human; details: Day 42; for number of biochemicals significantly decreased / number of biochemicals significantly increased: of 732 biochemicals; for share of biochemicals significantly changed / number of biochemicals whose serum levels were significantly changed: of a total of 732 biochemicals; for number of biochemicals whose serum levels were significantly changed: p≦0.05
Excerpt: as §1, §2, §3
Two parameters are typically evaluated when considering statistical significance, namely the p-value and the q-value. […] The q-value describes the false discovery rate; a low q-value (q≦0.10) is an indication of high confidence in a result. Because of the multiple testing occurring in the data sets produced by metabolomic studies, data is often evaluated for false positives.
as §4, §5

[4] = system: glycine; assay: Metabolomic analysis: glycine level; parameters: species or system human; details: in vivo
Excerpt: as §1, §2
(§6) The CMTRX technical replicate samples were treated independently throughout the process as if they were study samples. All process samples (CMTRX, GROBs—a mixture of organic components used to assess GC column performance, process blanks, etc.) were spaced evenly among the injections for each day and all client samples were randomly distributed throughout each day's run. […]

[5] = system: serine; assay: Metabolomic analysis: serine level; parameters: species or system human; details: in vivo
Excerpt: as §1, §2, §6

[6] = system: aspartate; assay: Metabolomic analysis: aspartate level; parameters: species or system human; details: in vivo
Excerpt: as §1, §2, §6

[7] = target: dopamine D2 (Homo sapiens, UniProt P14416); details: reported; cited from earlier work
Sequence of dopamine D2 (P14416 whole entry): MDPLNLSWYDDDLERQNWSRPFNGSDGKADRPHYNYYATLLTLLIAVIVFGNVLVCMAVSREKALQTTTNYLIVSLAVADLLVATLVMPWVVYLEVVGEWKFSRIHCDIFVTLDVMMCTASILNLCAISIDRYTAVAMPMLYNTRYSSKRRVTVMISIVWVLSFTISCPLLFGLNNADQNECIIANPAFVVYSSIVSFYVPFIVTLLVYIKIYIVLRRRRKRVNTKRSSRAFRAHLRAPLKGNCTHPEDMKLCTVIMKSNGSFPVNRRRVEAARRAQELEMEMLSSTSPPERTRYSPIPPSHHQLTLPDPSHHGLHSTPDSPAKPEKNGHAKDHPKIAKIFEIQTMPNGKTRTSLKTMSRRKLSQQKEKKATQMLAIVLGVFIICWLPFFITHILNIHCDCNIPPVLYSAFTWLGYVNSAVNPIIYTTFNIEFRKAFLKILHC

[8] = target: T1, serotonin 5-HT1A (Homo sapiens, UniProt P08908); details: reported; cited from earlier work
T1 sequence (P08908 1-422): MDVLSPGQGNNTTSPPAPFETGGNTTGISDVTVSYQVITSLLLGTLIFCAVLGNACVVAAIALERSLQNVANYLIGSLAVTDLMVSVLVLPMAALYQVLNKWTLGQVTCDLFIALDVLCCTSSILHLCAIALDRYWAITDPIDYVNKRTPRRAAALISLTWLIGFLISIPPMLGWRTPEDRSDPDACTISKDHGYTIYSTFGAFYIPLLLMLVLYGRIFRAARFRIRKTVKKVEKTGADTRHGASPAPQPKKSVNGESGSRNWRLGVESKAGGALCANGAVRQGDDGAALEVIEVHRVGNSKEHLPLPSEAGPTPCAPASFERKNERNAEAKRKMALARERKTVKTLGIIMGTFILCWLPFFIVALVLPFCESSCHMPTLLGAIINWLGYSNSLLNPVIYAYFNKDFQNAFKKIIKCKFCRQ

[9] = target: 5-HT2A (Homo sapiens, UniProt P28223); details: reported; cited from earlier work
Sequence of 5-HT2A (P28223 whole entry, species assumed): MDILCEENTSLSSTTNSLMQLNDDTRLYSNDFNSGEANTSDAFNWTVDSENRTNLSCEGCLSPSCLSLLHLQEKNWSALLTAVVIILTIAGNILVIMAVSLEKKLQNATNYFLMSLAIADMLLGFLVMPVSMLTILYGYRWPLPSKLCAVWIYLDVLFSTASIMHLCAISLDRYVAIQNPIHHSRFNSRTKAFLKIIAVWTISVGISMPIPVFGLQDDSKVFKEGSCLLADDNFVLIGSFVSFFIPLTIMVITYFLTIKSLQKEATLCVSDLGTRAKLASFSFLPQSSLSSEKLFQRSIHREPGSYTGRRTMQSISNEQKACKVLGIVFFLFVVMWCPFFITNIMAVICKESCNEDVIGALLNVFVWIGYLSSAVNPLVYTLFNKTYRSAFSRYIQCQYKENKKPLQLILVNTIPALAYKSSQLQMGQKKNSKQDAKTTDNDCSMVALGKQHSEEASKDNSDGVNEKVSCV

[10] = target: 5-HT7 (Homo sapiens, UniProt P34969); details: reported; cited from earlier work
Sequence of 5-HT7 (P34969 whole entry, species assumed): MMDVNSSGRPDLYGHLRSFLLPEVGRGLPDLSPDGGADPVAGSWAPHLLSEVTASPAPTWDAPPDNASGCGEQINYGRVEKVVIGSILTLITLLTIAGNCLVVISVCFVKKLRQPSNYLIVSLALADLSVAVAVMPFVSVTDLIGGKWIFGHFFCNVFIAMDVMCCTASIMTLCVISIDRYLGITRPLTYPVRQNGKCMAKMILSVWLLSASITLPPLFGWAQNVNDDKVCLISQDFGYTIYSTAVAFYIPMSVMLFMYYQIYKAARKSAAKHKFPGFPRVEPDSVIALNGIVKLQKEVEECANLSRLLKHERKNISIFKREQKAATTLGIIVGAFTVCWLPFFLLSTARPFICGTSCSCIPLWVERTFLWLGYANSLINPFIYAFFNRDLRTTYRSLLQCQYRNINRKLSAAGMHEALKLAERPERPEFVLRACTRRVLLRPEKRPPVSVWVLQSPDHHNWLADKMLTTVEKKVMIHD

[11] = target: T2, noradrenaline α2C receptors (Homo sapiens, UniProt P18825); details: reported; cited from earlier work
T2 sequence (P18825 1-462): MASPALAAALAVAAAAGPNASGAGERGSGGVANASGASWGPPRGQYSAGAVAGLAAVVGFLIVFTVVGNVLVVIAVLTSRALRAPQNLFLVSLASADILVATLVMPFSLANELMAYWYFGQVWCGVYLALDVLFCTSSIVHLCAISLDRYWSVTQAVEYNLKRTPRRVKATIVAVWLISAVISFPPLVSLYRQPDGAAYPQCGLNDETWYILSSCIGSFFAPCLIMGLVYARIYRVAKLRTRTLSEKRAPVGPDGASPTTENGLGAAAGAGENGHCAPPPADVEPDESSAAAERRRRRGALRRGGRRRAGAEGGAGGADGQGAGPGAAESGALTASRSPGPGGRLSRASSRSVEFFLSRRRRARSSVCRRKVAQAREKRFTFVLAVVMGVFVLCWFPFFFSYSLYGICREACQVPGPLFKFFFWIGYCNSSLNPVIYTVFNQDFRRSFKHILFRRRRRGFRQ

[12] = target: histamine H1 (Homo sapiens, UniProt P35367); details: reported; cited from earlier work
Sequence of histamine H1 (P35367 whole entry): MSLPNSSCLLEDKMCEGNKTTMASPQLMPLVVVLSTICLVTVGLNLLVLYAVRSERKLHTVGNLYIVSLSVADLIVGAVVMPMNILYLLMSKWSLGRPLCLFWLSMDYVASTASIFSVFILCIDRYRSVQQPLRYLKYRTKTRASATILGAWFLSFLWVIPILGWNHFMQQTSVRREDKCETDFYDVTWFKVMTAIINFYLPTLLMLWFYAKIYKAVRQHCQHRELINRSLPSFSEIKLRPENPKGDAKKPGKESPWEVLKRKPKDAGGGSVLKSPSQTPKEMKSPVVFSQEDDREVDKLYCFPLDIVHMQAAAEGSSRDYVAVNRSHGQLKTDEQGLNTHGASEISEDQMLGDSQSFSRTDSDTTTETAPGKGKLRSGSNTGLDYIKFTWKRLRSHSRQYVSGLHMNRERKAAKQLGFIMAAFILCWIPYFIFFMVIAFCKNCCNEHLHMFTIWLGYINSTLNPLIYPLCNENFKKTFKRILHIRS

[13] = target: T3, muscarinic M1 receptors (Homo sapiens, UniProt P11229); details: reported; cited from earlier work
T3 sequence (P11229 1-460): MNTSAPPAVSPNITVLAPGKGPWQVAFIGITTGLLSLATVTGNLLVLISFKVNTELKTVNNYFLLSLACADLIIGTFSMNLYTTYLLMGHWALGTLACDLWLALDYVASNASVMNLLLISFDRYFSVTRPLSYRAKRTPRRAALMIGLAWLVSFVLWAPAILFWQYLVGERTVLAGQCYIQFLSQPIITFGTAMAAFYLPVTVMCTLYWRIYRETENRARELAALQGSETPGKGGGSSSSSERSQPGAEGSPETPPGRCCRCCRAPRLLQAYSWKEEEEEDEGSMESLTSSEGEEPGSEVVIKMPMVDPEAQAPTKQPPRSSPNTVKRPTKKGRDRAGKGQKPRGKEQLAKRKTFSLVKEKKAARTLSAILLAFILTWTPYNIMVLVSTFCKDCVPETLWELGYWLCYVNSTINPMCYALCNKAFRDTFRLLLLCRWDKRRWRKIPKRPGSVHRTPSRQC

[14] = system: positive and negative symptoms of schizophrenia; details: several placebo-controlled trials; cited from earlier work
[15] = Total Sample of treatment responders, lurasidone 40 mg/d, olanzapine 15 mg/d, plasma
[16] = subgroup PANSS Negative Change at Week 6 ≦median change score
[17] = subgroup PANSS Positive Change at Week 6 >median change score
[18] = subgroup PANSS Positive Change at Week 6 ≦median change score
[19] = subgroup PANSS Total Change at Week 6 >median change score
[20] = subgroup PANSS Total Change at Week 6 ≦median change score

SMILES	Glutamate Levels at Week 6, mean (SD) [2, 15]	Glutamate Levels at Week 6, mean (SD) [2, 16]	Glutamate Levels at Week 6, mean (SD) [2, 17]	Glutamate Levels at Week 6, mean (SD) [2, 18]	Glutamate Levels at Week 6, mean (SD) [2, 19]	Glutamate Levels at Week 6, mean (SD) [2, 20]	number of biochemicals significantly decreased [3]	number of biochemicals significantly increased [3]	share of biochemicals significantly changed [3] [%]	number of biochemicals whose serum levels were significantly changed [3]	other results
O=C1[C@@H]2[C@H]3CC[C@H](C3)[C@@H]2C(=O)N1C[C@@H]1CCCC[C@H]1CN1CCN(c2nsc3ccccc23)CC1 [Lurasidone]	1.12 (0.34)	1.00 (0.28)	1.14 (0.41)	1.09 (0.23)	1.13 (0.38)	1.09 (0.27)	14	11	3	25	improvement in PANSS total, positive and negative subscores across treatment groups [1]: comparable; overall glutamate level compared with the placebo group ([2]; days 4 and weeks 6, treatment responders, FIG. 2): significantly greater; glutamate level in responders with high improvement in negative symptoms compared with other responder groups ([2]; week 6, PANSS negative change above median, FIG. 3): significantly higher increase; also recorded: significantly higher than all other responder groups; relation between levels of glutamate and change in PANSS negative subscore ([2]; week 6, scatterplot FIG. 4): proportional; level of glycine upon treatment [4]: increased; level of serine upon treatment [5]: increased; level of aspartate upon treatment [6]: increased; affinity for dopamine D2 [7]: high affinity; affinity for serotonin 5-HT1A [8]: high affinity; also recorded: moderate affinity; affinity for 5-HT2A [9]: high affinity; affinity for 5-HT7 [10]: high affinity; affinity for noradrenaline α2C receptors [11]: high affinity; affinity for histamine H1 [12]: minimal to no affinity; affinity for muscarinic M1 receptors [13]: minimal to no affinity; ameliorating the positive and negative symptoms of schizophrenia [14]: effective
Cc1cc2c(s1)Nc1ccccc1N=C2N1CCN(C)CC1 [Olanzapine, olanzapine]	1.00 (0.24)	1.03 (0.23)	1.02 (0.27)	0.98 (0.22)	1.01 (0.27)	0.99 (0.26)	46	54	14	100	Glutamate Levels at Week 6, mean (SD) ([2]; subgroup PANSS Negative Change at Week 6 >median change score, *lurasidone vs. olanzapine P = 0.014, vs placebo P = 0.025): 0.97 (0.26)

From patent US20140113912A1, “TREATMENT AND MANAGEMENT OF CNS DISORDERS” (priority 2011, published 2014)
